The numbers were not newly measured in US20060153925A1, “Novel solid pharmaceutical composition comprising amisulpride” (Sanofi-Aventis, priority 2003, published 2006), which cites them from elsewhere.

For this data set the following is noted: administered orally; attributed to partial gastrointestinal absorption.

Regarding `CCN1CCCC1CNC(=O)c1cc(S(=O)(=O)CC)c(N)cc1OC` (racemic) [amisulpride, 4-amino-N-[(1-ethyl-2-pyrrolidin-yl)methyl]-5-(ethylsulfonyl)-2-methoxybenzamide], the bioavailability result is “about 48%”.
